Values quoted from earlier work, collected in publication PMC8865417, “Receptor Interaction Profiles of 4-Alkoxy-3,5-Dimethoxy-Phenethylamines (Mescaline Derivatives) and Related Amphetamines” (Frontiers in Pharmacology, 2022).

Columns and labels:
Design in all cases: method as in Simmler et al. (2013)
hα2A adrenergic receptor = target: T1, hα2A adrenergic receptor (Homo sapiens, UniProt P08913); conditions: reference substance; ref Simmler et al. (2013); cited from earlier work
T1 construct: expressed in transfected cells; host or cells: Chinese hamster lung cells (membrane preparations)
T1 sequence (P08913 1-465): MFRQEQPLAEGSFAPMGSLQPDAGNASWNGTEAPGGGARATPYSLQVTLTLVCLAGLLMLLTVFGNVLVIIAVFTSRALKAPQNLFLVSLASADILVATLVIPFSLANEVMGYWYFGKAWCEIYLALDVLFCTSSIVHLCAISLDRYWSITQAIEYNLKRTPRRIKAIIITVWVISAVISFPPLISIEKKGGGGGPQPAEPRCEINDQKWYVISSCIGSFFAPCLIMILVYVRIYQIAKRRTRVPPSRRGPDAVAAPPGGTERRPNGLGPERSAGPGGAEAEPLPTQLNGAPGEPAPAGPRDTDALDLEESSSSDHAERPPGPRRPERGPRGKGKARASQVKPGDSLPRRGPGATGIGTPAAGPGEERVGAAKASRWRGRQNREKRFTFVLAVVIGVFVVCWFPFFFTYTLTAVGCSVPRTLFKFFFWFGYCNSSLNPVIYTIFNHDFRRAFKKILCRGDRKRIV

hDAT = target: T2, hDAT (Homo sapiens, UniProt Q01959); conditions: reference substance; ref Simmler et al. (2013); cited from earlier work
T2 construct: expressed in transfected cells; host or cells: HEK 293 cells (membrane preparations)
T2 sequence (Q01959 whole entry): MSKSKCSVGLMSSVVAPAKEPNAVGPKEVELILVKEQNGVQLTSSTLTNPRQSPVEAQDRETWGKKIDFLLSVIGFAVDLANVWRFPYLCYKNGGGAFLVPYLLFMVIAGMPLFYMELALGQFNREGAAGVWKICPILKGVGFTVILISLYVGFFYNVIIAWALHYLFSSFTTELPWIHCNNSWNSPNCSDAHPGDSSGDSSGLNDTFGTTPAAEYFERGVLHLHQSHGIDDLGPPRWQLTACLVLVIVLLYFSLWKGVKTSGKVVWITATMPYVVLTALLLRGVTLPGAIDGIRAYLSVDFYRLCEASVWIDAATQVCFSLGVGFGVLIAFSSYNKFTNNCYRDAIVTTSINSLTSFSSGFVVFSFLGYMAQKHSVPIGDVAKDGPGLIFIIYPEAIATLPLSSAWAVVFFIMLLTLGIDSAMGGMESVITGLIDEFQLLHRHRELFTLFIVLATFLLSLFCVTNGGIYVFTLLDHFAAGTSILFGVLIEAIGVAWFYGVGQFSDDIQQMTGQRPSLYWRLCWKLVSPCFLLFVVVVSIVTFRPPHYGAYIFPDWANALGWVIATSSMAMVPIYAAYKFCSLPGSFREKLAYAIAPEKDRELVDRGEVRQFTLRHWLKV

mouse TAAR1 = target: T3, mouse TAAR1 (Mus musculus, UniProt Q923Y8); conditions: reference substance; ref Simmler et al. (2013); read-out: mTAAR1 Ki; cited from earlier work
T3 construct: expressed in transfected cells; host or cells: HEK 293 cells (membrane preparations)
T3 sequence (Q923Y8 whole entry): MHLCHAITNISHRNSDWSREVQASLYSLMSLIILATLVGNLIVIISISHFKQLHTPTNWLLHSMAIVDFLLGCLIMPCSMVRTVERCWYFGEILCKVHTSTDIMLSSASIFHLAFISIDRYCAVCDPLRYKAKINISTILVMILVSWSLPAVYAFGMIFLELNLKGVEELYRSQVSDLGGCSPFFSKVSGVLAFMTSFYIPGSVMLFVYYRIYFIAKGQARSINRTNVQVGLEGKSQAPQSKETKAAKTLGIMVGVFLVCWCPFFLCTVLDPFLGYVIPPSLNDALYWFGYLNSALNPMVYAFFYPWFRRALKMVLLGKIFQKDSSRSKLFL

hNET = target: T4, hNET (Homo sapiens, UniProt P23975); conditions: reference substance; ref Simmler et al. (2013); cited from earlier work
T4 construct: expressed in transfected cells; host or cells: HEK 293 cells (membrane preparations)
T4 sequence (P23975 whole entry): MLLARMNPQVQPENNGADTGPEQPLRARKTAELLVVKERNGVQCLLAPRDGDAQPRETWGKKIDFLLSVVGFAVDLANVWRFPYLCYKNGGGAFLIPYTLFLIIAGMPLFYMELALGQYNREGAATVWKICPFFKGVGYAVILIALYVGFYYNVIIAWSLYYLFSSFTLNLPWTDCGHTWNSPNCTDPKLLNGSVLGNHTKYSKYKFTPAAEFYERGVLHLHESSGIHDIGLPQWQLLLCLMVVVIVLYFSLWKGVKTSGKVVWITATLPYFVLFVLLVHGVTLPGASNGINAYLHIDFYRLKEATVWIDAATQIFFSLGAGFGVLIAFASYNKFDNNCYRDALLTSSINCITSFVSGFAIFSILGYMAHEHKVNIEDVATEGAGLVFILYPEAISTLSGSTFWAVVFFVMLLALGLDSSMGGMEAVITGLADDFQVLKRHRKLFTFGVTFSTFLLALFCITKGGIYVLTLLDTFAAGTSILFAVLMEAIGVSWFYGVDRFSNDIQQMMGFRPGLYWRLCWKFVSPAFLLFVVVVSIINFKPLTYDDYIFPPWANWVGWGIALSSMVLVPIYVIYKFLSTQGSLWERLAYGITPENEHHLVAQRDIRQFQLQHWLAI

[1] = target: T5, dopaminergic hD2 receptor (Homo sapiens, UniProt P14416); conditions: reference substance; ref Simmler et al. (2013); cited from earlier work
T5 construct: expressed in transfected cells; host or cells: HEK 293 cells (membrane preparations)
T5 sequence (P14416 whole entry): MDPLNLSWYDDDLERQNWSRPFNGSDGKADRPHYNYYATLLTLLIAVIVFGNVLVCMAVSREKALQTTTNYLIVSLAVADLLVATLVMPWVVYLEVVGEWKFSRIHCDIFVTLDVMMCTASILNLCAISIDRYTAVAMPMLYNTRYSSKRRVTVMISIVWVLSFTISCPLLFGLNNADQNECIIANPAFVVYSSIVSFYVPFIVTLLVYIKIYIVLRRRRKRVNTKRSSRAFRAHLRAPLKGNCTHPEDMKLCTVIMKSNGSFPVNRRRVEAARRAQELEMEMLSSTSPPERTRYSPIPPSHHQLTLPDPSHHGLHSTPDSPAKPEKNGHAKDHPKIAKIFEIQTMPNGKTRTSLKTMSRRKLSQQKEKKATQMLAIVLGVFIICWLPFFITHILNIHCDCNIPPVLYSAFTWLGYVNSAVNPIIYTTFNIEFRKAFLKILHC

hα1A adrenergic receptor = target: T6, hα1A adrenergic receptor (Homo sapiens, UniProt P35348); conditions: reference substance; ref Simmler et al. (2013); cited from earlier work
T6 construct: expressed in transfected cells; host or cells: Chinese hamster ovary cells (membrane preparations)
T6 sequence (P35348 1-466): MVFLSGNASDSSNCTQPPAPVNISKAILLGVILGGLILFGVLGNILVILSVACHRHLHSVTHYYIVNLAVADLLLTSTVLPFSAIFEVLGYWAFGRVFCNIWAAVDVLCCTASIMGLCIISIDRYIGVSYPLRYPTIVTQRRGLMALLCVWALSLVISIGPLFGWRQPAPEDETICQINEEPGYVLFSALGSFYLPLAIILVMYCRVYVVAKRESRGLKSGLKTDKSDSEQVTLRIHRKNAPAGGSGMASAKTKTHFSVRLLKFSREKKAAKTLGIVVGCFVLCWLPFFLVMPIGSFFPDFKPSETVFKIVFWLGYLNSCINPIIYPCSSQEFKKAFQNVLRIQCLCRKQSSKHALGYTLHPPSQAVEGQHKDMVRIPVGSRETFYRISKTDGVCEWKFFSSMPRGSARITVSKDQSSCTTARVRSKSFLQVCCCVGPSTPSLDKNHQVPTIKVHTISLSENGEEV

hSERT = target: T7, hSERT (Homo sapiens, UniProt P31645); conditions: reference substance; ref Simmler et al. (2013); cited from earlier work
T7 construct: expressed in transfected cells; host or cells: HEK 293 cells (membrane preparations)
T7 sequence (P31645 whole entry): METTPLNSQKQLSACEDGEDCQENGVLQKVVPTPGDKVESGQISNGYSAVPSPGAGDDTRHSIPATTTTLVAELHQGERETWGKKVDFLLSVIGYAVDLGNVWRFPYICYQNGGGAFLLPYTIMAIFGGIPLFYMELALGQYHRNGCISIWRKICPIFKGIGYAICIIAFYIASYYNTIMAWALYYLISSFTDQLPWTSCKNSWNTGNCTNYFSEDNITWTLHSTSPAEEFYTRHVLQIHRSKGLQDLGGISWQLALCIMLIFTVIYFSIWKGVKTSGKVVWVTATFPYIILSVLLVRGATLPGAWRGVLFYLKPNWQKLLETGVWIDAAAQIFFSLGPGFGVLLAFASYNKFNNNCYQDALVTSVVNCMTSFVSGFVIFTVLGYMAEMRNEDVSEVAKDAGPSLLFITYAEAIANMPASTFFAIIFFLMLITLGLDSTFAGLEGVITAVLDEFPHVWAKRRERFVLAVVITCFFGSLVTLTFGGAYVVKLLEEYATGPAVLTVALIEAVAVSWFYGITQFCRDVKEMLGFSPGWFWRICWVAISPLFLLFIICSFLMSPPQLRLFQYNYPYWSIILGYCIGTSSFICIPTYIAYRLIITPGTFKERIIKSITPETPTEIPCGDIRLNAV

rat TAAR1 = target: T8, rat TAAR1 (Rattus norvegicus, UniProt Q923Y9); conditions: reference substance; ref Simmler et al. (2013); read-out: rTAAR1 Ki; cited from earlier work
T8 construct: expressed in transfected cells; host or cells: HEK 293 cells (membrane preparations)
T8 sequence (Q923Y9 whole entry): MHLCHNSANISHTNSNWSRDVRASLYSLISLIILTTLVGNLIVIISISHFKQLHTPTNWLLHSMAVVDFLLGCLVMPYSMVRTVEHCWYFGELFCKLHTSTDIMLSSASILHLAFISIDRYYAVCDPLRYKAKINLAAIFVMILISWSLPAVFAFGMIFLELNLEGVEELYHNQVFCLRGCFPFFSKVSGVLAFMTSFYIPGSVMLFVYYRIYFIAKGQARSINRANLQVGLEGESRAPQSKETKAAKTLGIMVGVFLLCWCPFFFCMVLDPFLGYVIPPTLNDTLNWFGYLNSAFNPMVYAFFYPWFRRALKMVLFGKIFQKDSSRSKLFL

## CNC(C)Cc1ccc2c(c1)OCO2 (centres unmarked) [MDMA]
hα2A adrenergic receptor
  Ki: > 5.1 µM
hDAT
  Ki: > 8.5 µM
Mouse TAAR1
  Ki: 2.4 µM
hNET
  Ki: > 9.7 µM
[1]
  Ki: > 6.3 µM
hα1A adrenergic receptor
  Ki: > 8.7 µM
hSERT
  Ki: > 7.5 µM
Rat TAAR1
  Ki: 0.37 ± 0.12 µM
